# Measured values reported in patent publication US9371336B2, “Compounds for treating spinal muscular atrophy” (PTC Therapeutics Inc., priority 2012, dated 2016).
# How the values were obtained:
# [1] = test system: SMN2 minigene mRNA (SMN2-A minigene construct); test: SMN2 minigene mRNA splicing RT-qPCR assay in cultured cells; type: cell-based, human; conditions: Homo sapiens, HEK293-H; HEK293H cells stably transfected with SMN2-A minigene, 24 hours, 7-point concentration data; concentration giving 1.5-fold SMN2 full length mRNA relative to vehicle-treated cells; read-out: EC1.5x for production of full length SMN2 mRNA
# Method: The reverse transcription-quantitative PCR-based (RT-qPCR) assay is used to quantify the level of the full length SMN2 minigene mRNA containing SMN2 exon 7 in a HEK293H cell line stably transfected with said minigene and treated with a test compound.
# HEK293H cells stably transfected with the SMN2-A minigene construct described above (10,000 cells/well) are seeded in 200 μL of cell culture medium (DMEM plus 10% FBS, with 200 μg/mL hygromycin) in 96-well flat-bottom plates and the plate is immediately swirled to ensure proper dispersal of cells, forming an even monolayer of cells. Cells are allowed to attach for at least 4-6 hours. Test compounds are serially diluted 3.16-fold in 100% DMSO to generate a 7-point concentration curve. A solution of test compound (1 μL, 200× in DMSO) is added to each cell-containing well and the plate is incubated for 24 hours in a cell culture incubator (37° C., 5% CO2, 100% relative humidity). Two replicates are prepared for each test compound concentration. The cells are then lysed in Cells-To-Ct lysis buffer and the lysate is stored at −80° C.
# Primer SMN Forward A (SEQ ID NO. 1) hybridizes to a nucleotide sequence in exon 7 (nucleotide 22 to nucleotide 40), primer SMN Reverse A (SEQ ID NO. 2) hybridizes to a nucleotide sequence in the coding sequence of Firefly luciferase, SMN Probe A (SEQ ID NO. 3) hybridizes to a nucleotide sequence in exon 7 (nucleotide 50 to nucleotide 54) and exon 8 (nucleotide 1 to nucleotide 21). The combination of these three oligonucleotides detects only SMN1 or SMN2 minigenes (RT-qPCR) and will not detect endogenous SMN1 or SMN2 genes.
# The SMN forward and reverse primers are used at final concentrations of 0.4 μM. The SMN probe is used at a final concentration of 0.15 μM. The GAPDH primers are used at final concentrations of 0.2 μM and the probe at 0.15 μM.
# The SMN2-minigene GAPDH mix (15 μL total volume) is prepared by combining 7.5 μL of 2×RT-PCR buffer, 0.4 μL of 25×RT-PCR enzyme mix, 0.75 μL of 20×GAPDH primer-probe mix, 4.0075 μL of water, 2 μL of 10-fold diluted cell lysate, 0.06 μL of 100 μM SMN forward primer, 0.06 μL of 100 μM SMN reverse primer, and 0.225 μL of 100 μM SMN probe.
# PCR is carried out at the following temperatures for the indicated time: Step 1: 48° C. (15 min); Step 2: 95° C. (10 min); Step 3: 95° C. (15 sec); Step 4: 60° C. (1 min); then repeat Steps 3 and 4 for a total of 40 cycles.
# Each reaction mixture contains both SMN2-A minigene and GAPDH primers/probe sets (multiplex design), allowing simultaneous measurement of the levels of two transcripts.
# Two SMN spliced products are generated from the SMN2 minigene. The first spliced product containing exon 7, corresponding to SMN2 full length mRNA, is referred to herein using the term “SMN2 minigene FL.” The second spliced product lacking exon 7 is referred to herein using the term “SMN2 minigene Δ7.”
# The increase of SMN2 minigene FL mRNA relative to that in cells treated with vehicle control is determined from real-time PCR data using a modified ΔΔCt method (as described in Livak and Schmittgen, Methods, 2001, 25:402-8). The amplification efficiency (E) is calculated from the slope of the amplification curve for SMN2 minigene FL and GAPDH individually. The abundances of SMN2 minigene FL and GAPDH are then calculated as (1+E)^−Ct, where Ct is the threshold value for each amplicon. The abundance of SMN2 minigene FL is normalized to GAPDH abundance. The normalized SMN2 minigene FL abundance from test compound-treated samples is then divided by normalized SMN2 minigene FL abundance from vehicle-treated cells to determine the level of SMN2 FL mRNA relative to vehicle control.
# Smn protein = Smn protein assay (HTRF) in cultured cells (SMA patient fibroblasts GM03813); type: cell-based, human; conditions: 48 hours; for EC1.5x for Smn protein expression: SMA patient fibroblast cells (GM03813), HTRF, 7-point concentration data, concentration producing 1.5 times Smn protein vs DMSO vehicle control; for maximum fold (Fold) increase of Smn protein: SMA patient fibroblast cells, 7-point concentration curve, relative to vehicle control
# Method: The Smn HTRF (homogeneous time resolved fluorescence) assay is used to quantify the level of Smn protein in SMA patient fibroblast cells treated with test compounds.
# Cells are thawed and cultured in DMEM-10% FBS for 72 hours. Cells are trypsinized, counted and re-suspended to a concentration of 25,000 cells/mL in DMEM-10% FBS. The cell suspension is plated at 5,000 cells per well in a 96 well microtiter plate and incubated for 3 to 5 hours. […] Test compounds are serially diluted 3.16-fold in 100% DMSO to generate a 7-point concentration curve. 1 μL of test compound solution is transferred to cell-containing wells and cells are incubated for 48 hours in a cell culture incubator (37° C., 5% CO2, 100% relative humidity). Triplicate samples are set up for each test compound concentration. After 48 hours, the supernatant is removed from the wells and 25 μL of the RIPA lysis buffer, containing protease inhibitors, is added to the wells and incubated with shaking at room temperature for 1 hour. 25 μL of the diluent is added and then 35 μL of the resulting lysate is transferred to a 384-well plate, where each well contains 5 μL of the antibody solution (1:100 dilution of anti-SMN d2 and anti-SMN kryptate in SMN reconstitution buffer). The plate is centrifuged for 1 minute to bring the solution to the bottom of the wells, then incubated overnight at room temperature. Fluorescence for each well of the plate at 665 nm and 620 nm is measured on an EnVision multilabel plate reader (Perkin-Elmer).
# The normalized fluorescence signal is calculated for each sample, Blank and vehicle control well by dividing the signal at 665 nm by the signal at 620 nm. Normalizing the signal accounts for possible fluorescence quenching due to the matrix effect of the lysate. The ΔF value (a measurement of Smn protein abundance as a percent value) for each sample well is calculated by subtracting the normalized average fluorescence for the Blank control wells from the normalized fluorescence for each sample well, then dividing this difference by the normalized average fluorescence for the Blank control wells and multiplying the resulting value by 100. The ΔF value for each sample well represents the Smn protein abundance from test compound-treated samples. The ΔF value for each sample well is divided by the ΔF value for the vehicle control wells to calculate the fold increase in Smn protein abundance relative to the vehicle control.
SMILES,EC (1.5-fold) [1],EC1.5x for Smn protein expression (Smn protein),maximum fold (Fold) increase of Smn protein (Smn protein)
"Cl.O=c1oc2nc(N3CCNCC3)ccc2cc1-c1nc2c(Cl)cccc2s1 [Cpd 2, 3-(4-chloro-1,3-benzothiazol-2-yl)-7-(piperazin-1-yl)-2H-pyrano[2,3-b]pyridin-2-one hydrochloride]",≤ 0.1 µM,**** (an EC1.5×≦0.3 μM is indicated by four stars (****)),***** (a fold increase >1.65 is indicated by five stars (*****))
"O=c1oc2nc(N3CCN(CCCl)CC3)ccc2cc1-c1nc2ccccc2s1 [Cpd 4, 3-(1,3-benzothiazol-2-yl)-7-[4-(2-chloroethyl)piperazin-1-yl]-2H-pyrano[2,3-b]pyridin-2-one]",1 to 3 µM,,** (a fold increase between >1.2 and ≦1.35 is indicated by two stars (**))
"CC(C)(C)OC(=O)N1CCN(c2cc3oc(=O)c(-c4nc5ccccc5s4)cc3cn2)CC1 [Cpd 7, tert-butyl 4-[3-(1,3-benzothiazol-2-yl)-2-oxo-2H-pyrano[3,2-c]pyridin-7-yl]piperazine-1-carboxylate]",3 to 30 µM,,* (A maximum fold increase ≦1.2 is indicated by one star (*))
"CC(C)(C)OC(=O)N1CCN(c2cc3oc(=O)c(-c4nc5c(Cl)cccc5s4)cc3cn2)CC1 [Cpd 8, tert-butyl 4-[3-(4-chloro-1,3-benzothiazol-2-yl)-2-oxo-2H-pyrano[3,2-c]pyridin-7-yl]piperazine-1-carboxylate]",3 to 30 µM,* (An EC1.5× for Smn protein expression between >3 μM and ≦10 μM is indicated by one star (*)),***** (a fold increase >1.65 is indicated by five stars (*****))
"CN1CCN(c2cc3oc(=O)c(-c4nc5ccccc5s4)cc3cn2)CC1 [Cpd 14, 3-(1,3-benzothiazol-2-yl)-7-(4-methylpiperazin-1-yl)-2H-pyrano[3,2-c]pyridin-2-one]",3 to 30 µM,,* (A maximum fold increase ≦1.2 is indicated by one star (*))
"Cl.O=c1oc2nc(N3CCNCC3)ccc2cc1-c1cn2ccccc2n1 [Cpd 28, 3-(imidazo[1,2-a]pyridin-2-yl)-7-(piperazin-1-yl)-2H-pyrano[2,3-b]pyridin-2-one hydrochloride]",0.1 to 0.3 µM,,*** (a fold increase between >1.35 and ≦1.5 is indicated by three stars (***))
"Cc1ccc2nc(-c3cc4cnc(N5CCNCC5)cc4oc3=O)cn2c1 [Cpd 33, 3-(6-methylimidazo[1,2-a]pyridin-2-yl)-7-(piperazin-1-yl)-2H-pyrano[3,2-c]pyridin-2-one]",1 to 3 µM,* (An EC1.5× for Smn protein expression between >3 μM and ≦10 μM is indicated by one star (*)),*** (a fold increase between >1.35 and ≦1.5 is indicated by three stars (***))
"Cc1cc(Cl)c2nc(-c3cc4cnc(N5CCNCC5)cc4oc3=O)cn2c1.Cl [Cpd 35, 3-(8-chloro-6-methylimidazo[1,2-a]pyridin-2-yl)-7-(piperazin-1-yl)-2H-pyrano[3,2-c]pyridin-2-one hydrochloride]",3 to 30 µM,,** (a fold increase between >1.2 and ≦1.35 is indicated by two stars (**))
"Cc1ccn2cc(-c3cc4cnc(N5CCNCC5)cc4oc3=O)nc2c1.Cl [Cpd 40, 3-(7-methylimidazo[1,2-a]pyridin-2-yl)-7-(piperazin-1-yl)-2H-pyrano[3,2-c]pyridin-2-one hydrochloride]",0.3 to 1 µM,,** (a fold increase between >1.2 and ≦1.35 is indicated by two stars (**))
"Cc1cn2cc(-c3cc4cnc(N5CCNCC5)cc4oc3=O)nc2s1.Cl [Cpd 41, 3-(2-methylimidazo[2,1-b][1,3]thiazol-6-yl)-7-(piperazin-1-yl)-2H-pyrano[3,2-c]pyridin-2-one hydrochloride]",0.3 to 1 µM,,** (a fold increase between >1.2 and ≦1.35 is indicated by two stars (**))
"Cc1ccn2nc(-c3cc4ccc(N5CCNCC5)nc4oc3=O)cc2c1.Cl [Cpd 43, 3-(5-methylpyrazolo[1,5-a]pyridin-2-yl)-7-(piperazin-1-yl)-2H-pyrano[2,3-b]pyridin-2-one hydrochloride]",0.1 to 0.3 µM,**** (an EC1.5×≦0.3 μM is indicated by four stars (****)),**** (a fold increase between >1.5 and ≦1.65 is indicated by four stars (****))
"Cl.O=c1oc2nc(N3CCNCC3)ccc2cc1-c1cn2ccsc2n1 [Cpd 44, 3-(imidazo[2,1-b][1,3]thiazol-6-yl)-7-(piperazin-1-yl)-2H-pyrano[2,3-b]pyridin-2-one hydrochloride]",≤ 0.1 µM,** (an EC1.5× between >1 and ≦3 μM is indicated by two stars (**)),*** (a fold increase between >1.35 and ≦1.5 is indicated by three stars (***))
"Cc1ccn2cc(-c3cc4cnc(N5CCN(C)CC5)cc4oc3=O)nc2c1 [Cpd 57, 3-(7-methylimidazo[1,2-a]pyridin-2-yl)-7-(4-methylpiperazin-1-yl)-2H-pyrano[3,2-c]pyridin-2-one]",0.3 to 1 µM,,** (a fold increase between >1.2 and ≦1.35 is indicated by two stars (**))
"Cc1ccn2cc(-c3cc4ccc(N5CCN[C@@H](C)C5)nc4oc3=O)nc2c1 [Cpd 58, 3-(7-methylimidazo[1,2-a]pyridin-2-yl)-7-[(3S)-3-methylpiperazin-1-yl]-2H-pyrano[2,3-b]pyridin-2-one]",≤ 0.1 µM,**** (an EC1.5×≦0.3 μM is indicated by four stars (****)),**** (a fold increase between >1.5 and ≦1.65 is indicated by four stars (****))
